Test results as given in patent publication US7049311B1, “Pyrrolbenzodiazepines” (Spirogen Limited, priority 1998, dated 2006).
“And” between values parts separate entries of the source, which are not always exact repeats. Equal values may be shown once.

Assays:
[1] = test system: human ovarian carcinoma cell line A2780; experiment: Cytotoxicity in A2780 (Example 9); type: cell-based
Experimental: Relative to the parental line, the A2780cisR subline is known to have elevated GSH levels, an increased level of repair of DNA-cisplatin adducts, and a decreased ability to uptake cisplatin (M. Smellie, et al., Br. J. Cancer, 1994, 70, 48).
The results, which were obtained by incubating the cells with the compounds for 96 hours at 37° C., and assessing the cell number using Sulforhodamine B, are presented in the table below: […]

A2780 = experiment: Ovarian carcinoma cytotoxicity assay; type: cell-based, human; details: Homo sapiens, A2780, 96 h, read-out: IC50 A2780
How it was run: (§1)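 Cells attached overnight, then read 96 hours later by sulphorhodamine B staining of TCA-fixed cells, with absorbance at 540 nm. IC50 taken from concentration versus % absorbance relative to untreated wells; cisR lines are cisplatin-resistant.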

A2780cisR = experiment: Ovarian carcinoma cytotoxicity assay; type: cell-based, human; details: Homo sapiens, A2780cisR, 96 h, read-out: IC50 A2780cisR
How it was run: as §1

human CNS tumour SF-295 = experiment: NCI human xenograft study; type: in vivo, mice; details: 5 doses
Experimental: (§2) These are carried out on nucle athymic mice with a disabled immune system. The human tumour tissue to be tested is implanted in their flanks, and whilst the control mouse receives no treatment, the others are subjected to varying doses of the test compound, which is administered intraperitoneally. The results are expressed as the toxicity of the compound, the amount of tumour growth, and the inhibition of growth.
UP2001 (80) was also evaluated against the human CNS tumour SF-295. Athymic nude mice bearing SF-295 were treated at doses of 0.40, 0.27 and 0.18 mg/Kg by injection given intravenously once daily for a total of 5 doses.

UACC-62 (human melanoma) = experiment: NCI human xenograft study; type: in vivo, mice
Experimental: as §2
(§3) Athymic nude mice bearing MDA-MB-435 xenografts (human mammary tumour), Ovcar-3 (human ovarian tumour), UACC-62 (human melanoma) or OVCAR-5 (human ovarian tumour) were treated at doses of 0.67 (high), 0.45 (middle) and 0.3 (low) mg/kg/injection given once every 4th day for a total of 3 doses (6 mice per dose level with 20 controls).
(§4) UP2001 (80) was evaluated by measuring the toxicity of the drug and its ability to retard tumour growth.
(§5) Toxicity represents the number of mice which died as a result of treatment. % T/C represents the width of the tumours in the “test” mice (T) (as measured with calipers) compared to control untreated mice (C) and presented as a percentage. % Growth Delay represents the increase in the amount of time taken for the tumors to reach an arbitrary size of 250 mg.

[2] = test system: MDA-MB-435 xenografts (human mammary tumour); experiment: NCI human xenograft study; type: in vivo, mice
Experimental: as §2, §3, §4, §5

calf thymus DNA = experiment: DNA helix melting temperature assay; type: binding
Experimental: The first assay, which is described in G. B. Jones, et al., Anti-Cancer Drug Des., 1990, 5, 249, which is incorporated herein by reference, determines the effect of the test compound on the helix melting temperature of DNA. This assay is designed to give an indication of the strength and extent of cross-linking of the DNA strands by the test compound (i.e. a measure of the stabilisation of the DNA upon ligand binding).
The melting temperature was determined for a 1:5 molar ratio of [ligand] [DNA], where the calf thymus DNA concentration is […] in aqueous sodium phosphate buffer (10 mM sodium phosphate+1 mM EDTA, pH 7.00±0.01). For calf thymus DNA at pH 7.00±0.01, the melting temperature is 67.83±0.06° C. (mean value from 30 separate determinations).

[3] = MDA-MB-435 xenografts, dose not given

In the case of C=C1C[C@H]2C=Nc3cc(OCCCOc4cc5c(cc4OC)C(=O)N4CC(=C)C[C@H]4C=N5)c(OC)cc3C(=O)N2C1 [UP2001 (80)], the “fold increase in cytotoxicity compared to DSB-120” value ([1]; A2780 cell line) is reported as 320 fold, the IC50 ([1]; Homo sapiens, A2780, 96 h, read-out: IC50 A2780) is reported as 0.023 nM and the IC50 (A2780) is reported as 0.023 nM. The IC50 (A2780cisR) was 0.024 nM, the “% T/C Low” value (human CNS tumour SF-295; 0.18 mg/Kg intravenously once daily) was 0% and the “Toxicity Low” value (human CNS tumour SF-295; 0.18 mg/Kg intravenously once daily, mice dying) was “two and 2/6”. For the same compound, the “Tumour Free Low” value (human CNS tumour SF-295; 0.18 mg/Kg intravenously once daily, surviving mice tumour free on day 27) was 3 out of 4 and 3/4, the “% T/C Med” value (human CNS tumour SF-295; 0.27 mg/Kg intravenously once daily) was 0% and the “Toxicity Med” value (human CNS tumour SF-295; 0.27 mg/Kg intravenously once daily, mice dying) was 1 and 1/6. The “Tumour Free Med” value (human CNS tumour SF-295; 0.27 mg/Kg intravenously once daily, surviving mice tumour free on day 27) was “all the surviving mice were tumour free and 5/5”, the “% T/C High” value (human CNS tumour SF-295; 0.40 mg/Kg intravenously once daily) was 0% and the “Toxicity High” value (human CNS tumour SF-295; 0.40 mg/Kg intravenously once daily, mice dying) was 2 and 2/6. For the same compound, the “Tumour Free High” value (human CNS tumour SF-295; 0.40 mg/Kg intravenously once daily, surviving mice tumour free on day 27) was “all the surviving mice were tumour free and 4/4”, the “% T/C Low” value (UACC-62 (human melanoma); 0.3 mg/kg/injection once every 4th day, 3 doses) was 67% and the “Toxicity Low” value (UACC-62 (human melanoma); 0.3 mg/kg/injection once every 4th day, 3 doses, mice which died as a result of treatment) was 0/6. For the same compound, the “% Growth Delay Low” value (UACC-62 (human melanoma); 0.3 mg/kg/injection, time for tumours to reach 250 mg) was 43%, the “% T/C Mid” value (UACC-62 (human melanoma); 0.45 mg/kg/injection once every 4th day, 3 doses) was 28% and the “Toxicity Mid” value (UACC-62 (human melanoma); 0.45 mg/kg/injection once every 4th day, 3 doses, mice which died as a result of treatment) was 0/6. The “% Growth Delay Mid” value (UACC-62 (human melanoma); 0.45 mg/kg/injection, time for tumours to reach 250 mg) was 43%, the “% T/C High” value (UACC-62 (human melanoma); 0.67 mg/kg/injection once every 4th day, 3 doses) was 22% and the “Toxicity High” value (UACC-62 (human melanoma); 0.67 mg/kg/injection once every 4th day, 3 doses, mice which died as a result of treatment) was 0/6. For the same compound, the “% Growth Delay High” value (UACC-62 (human melanoma); 0.67 mg/kg/injection, time for tumours to reach 250 mg) was 43%, the “% T/C Low” value ([2]; MDA-MB-435, 0.3 mg/kg/injection once every 4th day, 3 doses) was 3% and the “Toxicity Low” value ([2]; MDA-MB-435, 0.3 mg/kg/injection once every 4th day, 3 doses, mice which died as a result of treatment) was 2/6. The “% Growth Delay Low” value ([2]; MDA-MB-435, 0.3 mg/kg/injection, time for tumours to reach 250 mg) was 41%, the “% T/C Mid” value ([2]; MDA-MB-435, 0.45 mg/kg/injection once every 4th day, 3 doses) was 3% and the “Toxicity Mid” value ([2]; MDA-MB-435, 0.45 mg/kg/injection once every 4th day, 3 doses, mice which died as a result of treatment) was 1/6. For the same compound, the “% Growth Delay Mid” value ([2]; MDA-MB-435, 0.45 mg/kg/injection, time for tumours to reach 250 mg) was 41%, the “% T/C High” value ([2]; MDA-MB-435, 0.67 mg/kg/injection once every 4th day, 3 doses) was “toxic” and the “Toxicity High” value ([2]; MDA-MB-435, 0.67 mg/kg/injection once every 4th day, 3 doses, mice which died as a result of treatment) was 3/6. For the same compound, the “% Growth Delay High” value ([2]; MDA-MB-435, 0.67 mg/kg/injection, time for tumours to reach 250 mg) was 41%, the “delay in the time taken to reach tumour mass of 250 mg” value [2, 3] was 41% and the “tumour growth in treated mice as % of the tumour growth in the control population” value [2, 3] was 3%. For the same compound, the “Induced ΔTa after incubation at 37° C. for 0 h” value (calf thymus DNA; [PBD]:[DNA] ratio of 1:5, calf thymus DNA, pH 7.00, 0 h) was 25.7 °C, the “Induced ΔTa after incubation at 37° C. for 4 h” value (calf thymus DNA; [PBD]:[DNA] ratio of 1:5, calf thymus DNA, pH 7.00, 4 h) was 31.9 °C and the “Induced ΔTa after incubation at 37° C. for 18 h” value (calf thymus DNA; [PBD]:[DNA] ratio of 1:5, calf thymus DNA, pH 7.00, 18 h) was 33.6 °C. The “share of stabilising effect provided without prior incubation” value (calf thymus DNA; calf thymus DNA melting) was 60-80% and the “fold more effective than DSB-120 (comparative ΔTm curves)” value (calf thymus DNA; on a concentration basis) was no less than 10 fold.
